System: Acinetobacter baumannii strains
Assay: Antibiotic susceptibility test (CLSI disk diffusion test method, read per CLSI 2016)
Type: cell-based
Set-up: antibiotic susceptibility test value / susceptibility test value (number given before S/I/R) / antibiotic susceptibility value: unit not given here
Description: (§1) Strain identification was performed using a kit such as AT 32 GN system (bioMérieux, Marcy l'Etoile, France). […] In Table 2 below, S, I, and R are the results obtained by evaluating susceptibility to the antibacterial agents, in which ‘S’ means susceptible, ‘I’ means intermediate, and ‘R’ means resistant.
as §1, with “as ATB” for “as AT”, “system (bioMédrieux,” for “system (bioMérieux,”, “Table 6” for “Table 2”
as §1, with “as ATB” for “as AT”, “Table 10” for “Table 2”, “susceptible, T” for “susceptible, ‘I’”

piperacillin-tazobactam
antibiotic susceptibility value (host strain YMC16/01/R353): 128 | susceptibility category (S/I/R) (host strain YMC16/01/R353): R | susceptibility test value (number given before S/I/R) (host strain YMC16/01/R353): 128 | antibiotic susceptibility S/I/R (host strain YMC16/01/R380): R | antibiotic susceptibility value (host strain YMC16/01/R380): 128 | susceptibility category (S/I/R) (host strain YMC16/01/R380): R | susceptibility test value (number given before S/I/R) (host strain YMC16/01/R380): 128 | antibiotic susceptibility S/I/R (host strain YMC16/01/R397): R | antibiotic susceptibility value (host strain YMC16/01/R397): 128 | susceptibility category (S/I/R) (host strain YMC16/01/R397): R | susceptibility test value (number given before S/I/R) (host strain YMC16/01/R397): 128 | antibiotic susceptibility S/I/R (host strain YMC16/01/R405): R | antibiotic susceptibility value (host strain YMC16/01/R405): 128 | susceptibility category (S/I/R) (host strain YMC16/01/R405): R | susceptibility test value (number given before S/I/R) (host strain YMC16/01/R405): 128 | antibiotic susceptibility S/I/R (host strain YMC16/03/R4461): R | antibiotic susceptibility value (host strain YMC16/03/R4461): 128 | susceptibility category (S/I/R) (host strain YMC16/03/R4461): R | susceptibility test value (number given before S/I/R) (host strain YMC16/03/R4461): 128 | antibiotic susceptibility S/I/R (host strain YMC16/05/R2210): R | antibiotic susceptibility value (host strain YMC16/05/R2210): 128 | susceptibility category (S/I/R) (host strain YMC16/05/R2210): R | susceptibility test value (number given before S/I/R) (host strain YMC16/05/R2210): 128 | antibiotic susceptibility S/I/R (host strain YMC16/07/R2512): R | antibiotic susceptibility value (host strain YMC16/07/R2512): 128 | susceptibility category (S/I/R) (host strain YMC16/07/R2512): R | susceptibility test value (number given before S/I/R) (host strain YMC16/07/R2512): 128 | antibiotic susceptibility S/I/R (host strain YMC16/09/R2471): R | antibiotic susceptibility value (host strain YMC16/09/R2471): 128 | susceptibility category (S/I/R) (host strain YMC16/09/R2471): R | susceptibility test value (number given before S/I/R) (host strain YMC16/09/R2471): 128 | antibiotic susceptibility S/I/R (host strain YMC16/10/R2537): R | antibiotic susceptibility value (host strain YMC16/10/R2537): 128 | susceptibility category (S/I/R) (host strain YMC16/10/R2537): R | susceptibility test value (number given before S/I/R) (host strain YMC16/10/R2537): 128 | antibiotic susceptibility S/I/R (host strain YMC16/12/B11422): R | antibiotic susceptibility value (host strain YMC16/12/B11422): 128 | susceptibility category (S/I/R) (host strain YMC16/12/B11422): R | susceptibility test value (number given before S/I/R) (host strain YMC16/12/B11422): 128 | antibiotic susceptibility S/I/R (host strain YMC16/12/B11449): R | antibiotic susceptibility value (host strain YMC16/12/B11449): 128 | susceptibility category (S/I/R) (host strain YMC16/12/B11449): R | susceptibility test value (number given before S/I/R) (host strain YMC16/12/B11449): 128 | antibiotic susceptibility S/I/R (host strain YMC16/12/B13325): R | antibiotic susceptibility value (host strain YMC16/12/B13325): 128 | susceptibility category (S/I/R) (host strain YMC16/12/B13325): R | susceptibility test value (number given before S/I/R) (host strain YMC16/12/B13325): 128 | antibiotic susceptibility S/I/R (host strain YMC16/12/P503): R | antibiotic susceptibility value (host strain YMC16/12/P503): 128 | susceptibility category (S/I/R) (host strain YMC16/12/P503): R | susceptibility test value (number given before S/I/R) (host strain YMC16/12/P503): 128 | antibiotic susceptibility S/I/R (host strain YMC16/12/R4637): R | antibiotic susceptibility value (host strain YMC16/12/R4637): 128 | susceptibility category (S/I/R) (host strain YMC16/12/R4637): R | susceptibility test value (number given before S/I/R) (host strain YMC16/12/R4637): 128 | antibiotic susceptibility S/I/R (host strain YMC17/01/B8053): R | antibiotic susceptibility value (host strain YMC17/01/B8053): 128 | susceptibility category (S/I/R) (host strain YMC17/01/B8053): R | susceptibility test value (number given before S/I/R) (host strain YMC17/01/B8053): 128 | antibiotic susceptibility S/I/R (host strain YMC17/01/B10087): R | antibiotic susceptibility value (host strain YMC17/01/B10087): 128 | susceptibility category (S/I/R) (host strain YMC17/01/B10087): R | susceptibility test value (number given before S/I/R) (host strain YMC17/01/B10087): 128 | antibiotic susceptibility S/I/R (host strain YMC17/01/B12075): R | antibiotic susceptibility value (host strain YMC17/01/B12075): 128 | susceptibility category (S/I/R) (host strain YMC17/01/B12075): R | susceptibility test value (number given before S/I/R) (host strain YMC17/01/B12075): 128 | antibiotic susceptibility S/I/R (host strain YMC17/01/B13454): R | antibiotic susceptibility value (host strain YMC17/01/B13454): 128 | susceptibility category (S/I/R) (host strain YMC17/01/B13454): R | susceptibility test value (number given before S/I/R) (host strain YMC17/01/B13454): 128 | antibiotic susceptibility S/I/R (host strain YMC17/01/P518): R | antibiotic susceptibility value (host strain YMC17/01/P518): 128 | susceptibility category (S/I/R) (host strain YMC17/01/P518): R | susceptibility test value (number given before S/I/R) (host strain YMC17/01/P518): 128 | antibiotic susceptibility S/I/R (host strain YMC17/01/R2812): R | antibiotic susceptibility value (host strain YMC17/01/R2812): 128 | susceptibility category (S/I/R) (host strain YMC17/01/R2812): R | susceptibility test value (number given before S/I/R) (host strain YMC17/01/R2812): 128 | antibiotic susceptibility S/I/R (host strain YMC17/02/B14): R | antibiotic susceptibility value (host strain YMC17/02/B14): 128 | susceptibility category (S/I/R) (host strain YMC17/02/B14): R | susceptibility test value (number given before S/I/R) (host strain YMC17/02/B14): 128

From US20240000872A1, “NOVEL BACTERIOPHAGE THAT LYSES ACINETOBACTER GENUS BACTERIA HAVING RESISTANCE TO ANTIBIOTICS” (priority 2020, published 2024)
